Results published in ChEMBL document CHEMBL1201862, “PubChem BioAssay data set” (2004).
The source made the active and inactive calls.

Tests used:
[1] = target: T1, RNA-binding protein pos-1 (Caenorhabditis elegans, UniProt G5EF15); assay: disruptors of C. elegans POS-1 RNA interaction – biochemical, fluorescence polarization, dose response (AID 1964);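 further: purified POS-1 fused to maltose binding protein made in E. coli; potency of compounds blocking POS-1 binding to fluorescent RNA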
T1 sequence (G5EF15 whole entry): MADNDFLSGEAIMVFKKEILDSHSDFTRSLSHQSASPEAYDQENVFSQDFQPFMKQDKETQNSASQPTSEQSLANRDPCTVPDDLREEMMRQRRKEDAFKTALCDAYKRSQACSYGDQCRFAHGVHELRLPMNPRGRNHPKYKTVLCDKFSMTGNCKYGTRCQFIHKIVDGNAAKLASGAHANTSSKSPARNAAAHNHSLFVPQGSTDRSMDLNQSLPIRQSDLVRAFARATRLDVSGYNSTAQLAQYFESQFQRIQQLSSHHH

[2] = Luminescence Cell-Based Dose Confirmation HTS to Identify Activators of 5'UTR Stem-Loop Driven Alpha-Synuclein mRNA Translation in H4 Neuroglioblastoma Cells. [Related pubchem assays: 1829 (Project Summary), 1814 (Primary HTS)]; type: functional
[3] = Luminescence Cell-Based Dose Response HTS to Identify Activators of Luciferase Translation or Activity in H4 […] Cells. [Related pubchem assays: 1829 (Project Summary), 1814 (Primary HTS)]; type: functional
H4 = assay: Luminescence Cell-Based Dose Response HTS to Identify Activators of 5'UTR Stem-Loop Driven Prion Protein mRNA Translation in H4 Neuroglioblastoma Cells. [Related pubchem assays: 1829 (Project Summary), 1814 (Primary HTS)]; type: functional; conditions: Homo sapiens
[4] = target: T2, Zinc finger protein mex-5 (Caenorhabditis elegans, UniProt Q9XUB2); assay: potency of MEX-5 RNA-binding blockers – biochemical, C. elegans, fluorescence polarization, dose response (AID 1960)
T2 sequence (Q9XUB2 whole entry): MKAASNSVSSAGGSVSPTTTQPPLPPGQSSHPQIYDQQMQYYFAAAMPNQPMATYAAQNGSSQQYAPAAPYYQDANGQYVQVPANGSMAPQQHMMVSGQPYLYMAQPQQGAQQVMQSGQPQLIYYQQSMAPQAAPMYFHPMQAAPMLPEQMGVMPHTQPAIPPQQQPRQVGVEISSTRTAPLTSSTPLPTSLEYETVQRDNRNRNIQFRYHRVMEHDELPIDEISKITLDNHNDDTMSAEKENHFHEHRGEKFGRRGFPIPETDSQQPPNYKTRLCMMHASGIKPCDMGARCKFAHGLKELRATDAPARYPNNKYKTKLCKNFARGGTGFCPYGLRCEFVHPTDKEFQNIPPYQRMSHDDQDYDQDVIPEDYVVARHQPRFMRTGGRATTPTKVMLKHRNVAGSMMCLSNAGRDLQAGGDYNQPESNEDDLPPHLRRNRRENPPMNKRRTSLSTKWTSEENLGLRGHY

[5] = viability of uninfected HEp-2 cells – cell-based, HTS, cytotoxicity control for RSV inhibitor project, dose response (AID 2410); type: functional; conditions: human respiratory syncytial virus
[6] = Trypanosoma cruzi growth suppression in host cells – NIH3T3 host cells, beta-gal luminescence, confirmation (AID 2044); type: functional, cell-based;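 further: intracellular parasites grown in NIH/3T3 mouse fibroblasts as host cells; luminescent beta-galactosidase reporter signal from transgenic T. cruzi replicating inside host cells; inhibitors lower the luminescence signal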
[7] = NIH3T3 cell viability loss – ATP luminescence, mouse fibroblasts, counter-screen, dose response (AID 2010); type: functional, cell-based;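 further: cells exposed to compound for about 90 hours before reading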
INS1 = assay: INS-1E survival protection against cytokine death – cell-based, luminescence, retest, dose response (AID 449756); type: functional; conditions: Rattus norvegicus;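 further: cell death triggered by IL-1 beta plus TNF-alpha plus IFN-gamma mixture; protective hits raise ATP signal compared with cytokine alone wells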
[8] = target: T3, Replicative DNA helicase DnaB (Mycobacterium tuberculosis, UniProt P9WMR3); assay: DnaB intein splicing inhibitors, dose response, biochemical, cell-free fluorescence (AID 449749); type: functional
T3 sequence (P9WMR3 whole entry): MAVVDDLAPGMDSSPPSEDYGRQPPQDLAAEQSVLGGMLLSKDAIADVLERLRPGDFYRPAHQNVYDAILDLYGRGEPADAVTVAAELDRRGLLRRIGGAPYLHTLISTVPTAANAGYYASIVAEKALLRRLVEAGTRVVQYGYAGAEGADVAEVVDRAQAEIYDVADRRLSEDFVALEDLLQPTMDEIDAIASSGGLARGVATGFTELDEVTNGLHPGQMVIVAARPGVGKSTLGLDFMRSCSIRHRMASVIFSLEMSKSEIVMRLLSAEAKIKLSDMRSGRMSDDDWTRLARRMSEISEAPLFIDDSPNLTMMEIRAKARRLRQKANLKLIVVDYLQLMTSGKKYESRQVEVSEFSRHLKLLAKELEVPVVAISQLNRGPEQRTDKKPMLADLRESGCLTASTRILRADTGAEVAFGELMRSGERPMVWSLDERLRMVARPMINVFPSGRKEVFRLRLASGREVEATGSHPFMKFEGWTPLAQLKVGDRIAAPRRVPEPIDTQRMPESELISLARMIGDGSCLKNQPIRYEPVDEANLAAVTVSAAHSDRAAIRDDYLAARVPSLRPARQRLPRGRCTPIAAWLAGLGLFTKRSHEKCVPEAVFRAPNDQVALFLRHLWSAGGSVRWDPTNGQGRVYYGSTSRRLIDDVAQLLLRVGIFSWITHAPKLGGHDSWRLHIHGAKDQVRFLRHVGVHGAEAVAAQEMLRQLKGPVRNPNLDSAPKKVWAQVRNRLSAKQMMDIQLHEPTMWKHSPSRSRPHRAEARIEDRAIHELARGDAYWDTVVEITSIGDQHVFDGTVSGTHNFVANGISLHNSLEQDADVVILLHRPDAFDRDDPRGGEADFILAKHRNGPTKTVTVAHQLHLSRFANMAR

Protein RecA = target: T4, Protein RecA (Mycobacterium tuberculosis, UniProt P9WHJ3); assay: Fluorescence Cell-Free Homogeneous Dose Retest to Identify Inhibitors of RecA-Intein Splicing Activity. [Related pubchem assays (depositor defined):AID2097, AID2223, AID489010, AID492950]; type: functional
T4 sequence (P9WHJ3 whole entry): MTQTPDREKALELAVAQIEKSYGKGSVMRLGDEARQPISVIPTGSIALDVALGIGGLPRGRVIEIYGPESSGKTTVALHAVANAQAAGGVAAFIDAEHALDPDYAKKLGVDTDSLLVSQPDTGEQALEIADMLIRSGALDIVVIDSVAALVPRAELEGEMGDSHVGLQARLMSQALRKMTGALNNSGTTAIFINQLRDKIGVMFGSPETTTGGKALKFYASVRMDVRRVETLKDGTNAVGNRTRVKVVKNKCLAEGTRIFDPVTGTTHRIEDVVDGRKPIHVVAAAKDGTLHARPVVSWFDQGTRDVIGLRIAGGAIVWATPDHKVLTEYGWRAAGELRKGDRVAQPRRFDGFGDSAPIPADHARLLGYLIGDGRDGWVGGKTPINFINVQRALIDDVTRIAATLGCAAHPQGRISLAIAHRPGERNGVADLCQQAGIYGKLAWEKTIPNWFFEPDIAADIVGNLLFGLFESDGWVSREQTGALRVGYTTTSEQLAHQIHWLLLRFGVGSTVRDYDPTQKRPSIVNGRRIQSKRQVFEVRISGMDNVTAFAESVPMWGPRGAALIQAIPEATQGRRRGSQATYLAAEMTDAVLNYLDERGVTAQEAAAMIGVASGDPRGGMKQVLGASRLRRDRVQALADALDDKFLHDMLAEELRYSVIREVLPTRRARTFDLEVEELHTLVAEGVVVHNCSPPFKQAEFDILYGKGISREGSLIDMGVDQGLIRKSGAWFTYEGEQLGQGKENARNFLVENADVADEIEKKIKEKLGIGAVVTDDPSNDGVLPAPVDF

Cytochrome P450 2C19 = Cytochrome P450 2C19 (Homo sapiens, UniProt P33261); assay: Cytochrome panel assay with activity outcomes. Panel member name: p450-cyp2c19 Compounds with AC50 equal or less than 10 uM are considered active; type: functional; conditions: read-out: AC50
Cytochrome P450 1A2 = target: T5, Cytochrome P450 1A2 (Homo sapiens, UniProt P05177);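 further: PubChem cytochrome P450 panel assay, CYP1A2 panel member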
T5 sequence (P05177 whole entry): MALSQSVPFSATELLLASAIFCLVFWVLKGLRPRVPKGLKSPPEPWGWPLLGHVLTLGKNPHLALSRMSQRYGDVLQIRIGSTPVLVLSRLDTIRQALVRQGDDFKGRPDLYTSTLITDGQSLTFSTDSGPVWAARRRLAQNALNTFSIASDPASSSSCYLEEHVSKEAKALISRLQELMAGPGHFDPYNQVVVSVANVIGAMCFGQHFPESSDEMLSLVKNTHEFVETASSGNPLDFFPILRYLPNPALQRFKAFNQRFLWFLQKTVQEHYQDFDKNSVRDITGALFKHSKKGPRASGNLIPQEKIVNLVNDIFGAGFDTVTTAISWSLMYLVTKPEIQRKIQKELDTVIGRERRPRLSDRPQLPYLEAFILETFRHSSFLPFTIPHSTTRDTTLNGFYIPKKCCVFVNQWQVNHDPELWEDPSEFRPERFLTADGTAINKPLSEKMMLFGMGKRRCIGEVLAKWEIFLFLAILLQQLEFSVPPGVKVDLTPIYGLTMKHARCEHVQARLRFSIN

Cytochrome P450 3A4 = Cytochrome P450 3A4 (Homo sapiens, UniProt P08684);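 further: CYP3A4 tested as one member of a cytochrome P450 panel screen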
Chain of Cytochrome P450 3A4 (P08684 whole entry): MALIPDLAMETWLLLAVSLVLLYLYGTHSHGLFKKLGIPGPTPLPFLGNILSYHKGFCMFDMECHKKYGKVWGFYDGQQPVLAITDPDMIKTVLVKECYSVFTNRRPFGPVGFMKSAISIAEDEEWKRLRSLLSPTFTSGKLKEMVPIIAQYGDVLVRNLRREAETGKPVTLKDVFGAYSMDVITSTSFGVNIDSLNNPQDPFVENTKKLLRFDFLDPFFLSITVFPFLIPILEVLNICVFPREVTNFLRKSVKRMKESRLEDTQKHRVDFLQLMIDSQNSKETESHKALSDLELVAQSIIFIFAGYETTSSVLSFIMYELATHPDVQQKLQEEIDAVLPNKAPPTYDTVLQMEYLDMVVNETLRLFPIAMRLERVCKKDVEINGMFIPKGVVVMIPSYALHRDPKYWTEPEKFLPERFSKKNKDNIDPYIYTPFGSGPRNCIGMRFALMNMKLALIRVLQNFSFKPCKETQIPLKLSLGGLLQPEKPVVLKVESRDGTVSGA

Chain of Cytochrome P450 2C19 (P33261 whole entry): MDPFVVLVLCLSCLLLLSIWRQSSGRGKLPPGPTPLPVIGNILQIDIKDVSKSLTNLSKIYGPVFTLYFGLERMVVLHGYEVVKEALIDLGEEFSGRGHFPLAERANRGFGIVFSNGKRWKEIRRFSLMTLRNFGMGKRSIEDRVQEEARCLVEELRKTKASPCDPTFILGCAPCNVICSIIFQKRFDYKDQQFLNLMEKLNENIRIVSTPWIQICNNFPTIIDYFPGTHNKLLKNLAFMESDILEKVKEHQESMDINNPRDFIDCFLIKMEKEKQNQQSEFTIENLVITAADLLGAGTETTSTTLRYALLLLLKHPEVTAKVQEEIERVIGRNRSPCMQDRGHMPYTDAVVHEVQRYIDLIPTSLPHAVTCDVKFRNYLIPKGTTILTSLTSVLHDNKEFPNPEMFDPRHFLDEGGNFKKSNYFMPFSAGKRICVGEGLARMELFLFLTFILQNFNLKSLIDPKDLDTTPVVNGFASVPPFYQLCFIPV

Compound	EC50 [2]	EC50 [3]	EC50 (H4)	other results
COc1cccc(C2c3c(oc4ccccc4c3=O)C(=O)N2Cc2ccco2)c1 (stereo not drawn)	1.7 µM (active)	55.4 µM (active)	68 µM (active)	EC50 [1]: 36.3 µM (active); EC50 [4]: 150 µM (active)
C=CCn1cccc(C(=O)Nc2ccc(SC)cc2)c1=O	0.229 µM (active)	0.188 µM (active)	9.44 µM (active)	–
Cc1nc(C(=O)Nc2ccccc2)sc1C1(C)CC(c2cccnc2)=NO1 (stereo not drawn)	10.1 µM (active)	30.4 µM (active)	11.9 µM (active)	–
Nc1nn(-c2ccccc2)nc1C(=O)OCc1ccccc1	> 120 µM (not active)	13.7 µM (active)	25.2 µM (active)	–
c1ccc2c(-c3nc(-c4ccncc4)no3)cccc2c1	0.841 µM (active)	> 120 µM (not active)	51.4 µM (active)	–
Oc1nc(CCl)nc2cc(-c3ccc(Cl)cc3)sc12	–	–	–	CC50 [5]: 14.5 µM (active); EC50 [6]: 1.14 µM (active); EC50 [7]: 6.96 µM (active)
CC(C)c1ccc(NC(S)=NN2CCOCC2)cc1	18.4 µM (active)	17.4 µM (active)	22.2 µM (active)	–
COc1ccccc1N=C(S)NNC(=O)c1ccc(Cl)cc1Cl	10.9 µM (active)	31.8 µM (active)	61.7 µM (active)	–
N#Cc1ccc(-c2ccc(Cl)cc2)nc1SCC(=O)c1cccc(Cl)c1	> 120 µM (not active)	> 120 µM (not active)	> 120 µM (not active)	AC50 (INS1): 3.9 µM (active)
Cc1ccccc1OCc1nc(-c2ccc(NC(=O)c3cccs3)cc2)no1	23.8 µM (active)	28.5 µM (active)	1.46 µM (active)	–
COc1ccc(CN(C(=O)CSc2nnc(-c3ccccc3C)o2)c2ccc(F)cc2)cc1	–	–	–	CC50 [5]: 29.4 µM (active); AC50 [8]: 1.42 µM (active); EC50 (Protein RecA): 8.86 µM (active)
CC(C)c1cc(C(N)=O)c(NC(=O)c2cccc(COc3ccc(Br)cc3)c2)s1	11.3 µM (active)	41.9 µM (active)	0.366 µM (active)	EC50 [1]: > 300 µM (not active); EC50 [4]: > 300 µM (not active); EC50 [6]: 1.87 µM (active); EC50 [7]: > 30 µM (not active)
Cn1cc(/C=C(\NC(=O)c2ccccc2Cl)C(=O)NCCN2CCOCC2)c2ccccc21	> 120 µM (not active)	> 120 µM (not active)	> 120 µM (not active)	–
Cc1cccc(OCC2=NS(=O)(=O)c3ccccc3N2)c1	> 120 µM (not active)	9.74 µM (active)	> 120 µM (not active)	–
CC(C)(C)c1ccc(OCc2ccc(C(=O)NCc3cccnc3)o2)cc1	6.24 µM (active)	5.94 µM (active)	> 120 µM (not active)	–
Cc1c(OCC(=O)NCc2cccnc2)ccc2c3c(c(=O)oc12)CCC3	> 120 µM (not active)	> 120 µM (not active)	15.4 µM (active)	–
Cc1cc(CNC(=O)c2ccc3nc(Cc4ccccc4F)oc3c2)nn1C	0.3 µM (active)	58.7 µM (active)	7.51 µM (active)	–
CCOC(=O)c1c(C)[nH]c(/C=N/c2ccc(OC)cc2)c1O	16.5 µM (active)	46.9 µM (active)	4.53 µM (active)	–
C(=N\C(/N=C/c1ccco1)c1ccco1)/c1ccco1	28.9 µM (active)	> 120 µM (not active)	> 120 µM (not active)	–
C/C(=N\n1nnnc1Nc1ccccc1)c1ccc(N)cc1	> 120 µM (not active)	> 120 µM (not active)	> 120 µM (not active)	AC50 (Cytochrome P450 2C19): 3.55 µM (inconclusive); AC50 (Cytochrome P450 1A2): 12.6 µM (inconclusive); AC50 (Cytochrome P450 3A4): 22.4 µM (inconclusive)
COc1ccc(S(=O)(=O)n2ccc(-c3ccc4c(c3)CCC(C)(C)O4)n2)cc1	> 120 µM (not active)	17.2 µM (active)	43.4 µM (active)	–
